# Legend:
# [1] = biological target: T1, Amine oxidase [flavin-containing] B (Rattus norvegicus, UniProt P19643); test: Inhibition of Monoamine oxidase B of rat liver mitochondrial membranes; format: cell membranes, Membrane
# T1 sequence (P19643 whole entry): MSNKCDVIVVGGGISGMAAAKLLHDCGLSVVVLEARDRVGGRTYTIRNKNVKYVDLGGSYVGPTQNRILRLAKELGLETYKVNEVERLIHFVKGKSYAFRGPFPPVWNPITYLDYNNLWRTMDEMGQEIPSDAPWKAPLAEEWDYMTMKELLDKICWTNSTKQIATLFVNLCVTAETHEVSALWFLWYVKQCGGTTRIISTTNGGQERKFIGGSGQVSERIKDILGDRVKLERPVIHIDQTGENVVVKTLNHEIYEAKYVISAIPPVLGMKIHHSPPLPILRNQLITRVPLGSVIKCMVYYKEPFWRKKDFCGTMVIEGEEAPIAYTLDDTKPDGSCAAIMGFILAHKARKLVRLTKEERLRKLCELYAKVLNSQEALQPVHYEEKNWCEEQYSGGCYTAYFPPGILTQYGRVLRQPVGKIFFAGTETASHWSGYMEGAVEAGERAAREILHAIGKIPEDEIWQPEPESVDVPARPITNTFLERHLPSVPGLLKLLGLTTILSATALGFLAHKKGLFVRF
# [2] = biological target: T2, Amine oxidase [flavin-containing] A (Rattus norvegicus, UniProt P21396); test: Inhibition of Monoamine oxidase A of rat liver mitochondrial membranes; format: cell membranes, Membrane
# T2 sequence (P21396 whole entry): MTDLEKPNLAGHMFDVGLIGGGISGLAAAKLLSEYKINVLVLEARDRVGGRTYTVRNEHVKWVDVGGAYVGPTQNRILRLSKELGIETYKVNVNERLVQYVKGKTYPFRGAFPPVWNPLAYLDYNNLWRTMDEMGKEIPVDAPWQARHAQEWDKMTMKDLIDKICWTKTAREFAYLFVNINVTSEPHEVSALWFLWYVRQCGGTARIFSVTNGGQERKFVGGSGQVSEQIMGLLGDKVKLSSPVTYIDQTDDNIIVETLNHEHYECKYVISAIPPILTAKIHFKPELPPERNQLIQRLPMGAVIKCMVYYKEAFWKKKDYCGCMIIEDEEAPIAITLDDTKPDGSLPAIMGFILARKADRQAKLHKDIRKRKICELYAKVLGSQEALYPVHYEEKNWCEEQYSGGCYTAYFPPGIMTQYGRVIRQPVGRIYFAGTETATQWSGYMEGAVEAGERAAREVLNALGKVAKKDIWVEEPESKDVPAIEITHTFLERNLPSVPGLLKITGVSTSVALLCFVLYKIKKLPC
# [3] = test system: Mus musculus; test: MAO activities in the mouse brain after intraperitoneal administration of compound towards PE (1.9 x 10e-5 M) substrate; format: functional; settings: ip, read-out: ID50 (the source's name)
# [4] = test system: Mus musculus; test: MAO activities in the mouse brain after intraperitoneal administration of compound towards 5-HT (5 x 10e-4 M) substrate; format: functional; settings: ip, read-out: ID50 (the source's name)
# [5] = test system: Rattus norvegicus; test: MAO activity evaluated in dissected forebrain of rat after 2 hr of administration; format: functional
# [6] = test system: Mus musculus; test: MAO activities in the mouse brain after oral administration of compound towards PE (1.9 x 10e-5 M) substrate; format: functional
# [7] = test system: Mus musculus; test: MAO activities in the mouse brain after oral administration of compound towards 5-HT (5 x 10e-4 M) substrate; format: functional
# [8] = test system: Mus musculus; test: Compound was evaluated for MAO-A activity after 1 days of chronic peritoneal administration in mouse fore brain at dose of 2 mg/kg; format: functional
# [9] = test system: Mus musculus; test: Compound was evaluated for MAO-A activity after 1 day of chronic peritoneal administration in mouse fore brain at dose of 0.25 mg/kg; format: functional
# [10] = test system: Mus musculus; test: Compound was evaluated for MAO-A activity after 10 days of chronic peritoneal administration in mouse fore brain at dose of 2 mg/kg; format: functional
# [11] = biological target: T3, Monoamine oxidase (Rattus norvegicus, UniProt P19643+P21396); format: protein assay
# T3 sequence (P19643 whole entry): T1 sequence (P19643 whole entry)
# T3 sequence (P21396 whole entry): T2 sequence (P21396 whole entry)
# [12] = test system: Mus musculus; test: Compound was evaluated for MAO-B activity after 1 days of chronic peritoneal administration in mouse fore brain at dose of 2 mg/kg; format: functional
# [13] = test system: Mus musculus; test: Compound was evaluated for MAO-B activity after 21 days of chronic peritoneal administration in mouse fore brain at dose of 2 mg/kg; format: functional
# [14] = test system: Mus musculus; test: Compound was evaluated for MAO-B activity after 1 day of chronic peritoneal administration in mouse fore brain at dose of 0.25 mg/kg; format: functional
# [15] = test system: Mus musculus; test: Compound was evaluated for MAO-A activity after 21 days of chronic peritoneal administration in mouse fore brain at dose of 2 mg/kg; format: functional
# [16] = test system: Mus musculus; test: Compound was evaluated for MAO-B activity after 10 days of chronic peritoneal administration in mouse fore brain at dose of 2 mg/kg; format: functional
# [17] = test system: Mus musculus; test: Compound was evaluated for MAO-B activity after 13 days of chronic peritoneal administration in mouse fore brain at dose of 0.25 mg/kg; format: functional
# [18] = test system: Mus musculus; test: Compound was evaluated for MAO-A activity after 13 days of chronic peritoneal administration in mouse fore brain at dose of 0.25 mg/kg; format: functional
# [19] = biological target: T3, Monoamine oxidase; test: Compound was evaluated for the inhibition of deamination of dopamine (DA) by Monoamine oxidase at 5 x 10e-4 M; format: protein assay
# [20] = test system: Mus musculus; test: Compound was evaluated for MAO-B activity after 9 days of chronic peritoneal administration in mouse fore brain at dose of 0.05 mg/kg; format: functional
# [21] = test system: Mus musculus; test: Compound was evaluated for MAO-B activity after 9 day of chronic peritoneal administration in mouse fore brain at dose of 0.2 mg/kg; format: functional
# [22] = test system: Mus musculus; test: Compound was evaluated for MAO-A activity after 1 day of chronic peritoneal administration in mouse fore brain at dose of 0.2 mg/kg; format: functional
# [23] = test system: Mus musculus; test: Compound was evaluated for MAO-B activity after 1 day of chronic peritoneal administration in mouse fore brain at dose of 0.2 mg/kg; format: functional
# [24] = test system: Mus musculus; test: Compound was evaluated for MAO-A activity after 9 days of chronic peritoneal administration in mouse fore brain at dose of 0.05 mg/kg; format: functional
# [25] = test system: Mus musculus; test: Compound was evaluated for MAO-A activity after 20 days of chronic peritoneal administration in mouse fore brain at dose of 0.05 mg/kg; format: functional
# [26] = test system: Mus musculus; test: Compound was evaluated for MAO-A activity after 20 day of chronic peritoneal administration in mouse fore brain at dose of 0.2 mg/kg; format: functional
# [27] = test system: Mus musculus; test: Compound was evaluated for MAO-B activity after 1 day of chronic peritoneal administration in mouse fore brain at dose of 0.05 mg/kg; format: functional
# [28] = test system: Mus musculus; test: Compound was evaluated for MAO-A activity after 9 day of chronic peritoneal administration in mouse fore brain at dose of 0.2 mg/kg; format: functional
# [29] = test system: Mus musculus; test: Compound was evaluated for MAO-A activity after 1 day of chronic peritoneal administration in mouse fore brain at dose of 0.05 mg/kg; format: functional
# [30] = test system: Mus musculus; test: Compound was evaluated for MAO-B activity after 20 day of chronic peritoneal administration in mouse fore brain at dose of 0.2 mg/kg; format: functional
# [31] = test system: Mus musculus; test: Compound was evaluated for MAO-B activity after 20 days of chronic peritoneal administration in mouse fore brain at dose of 0.05 mg/kg; format: functional
Compound,IC50 [1],IC50 [2],ED50 [3] [µmol/kg],ED50 [4] [µmol/kg],ED50 [5] [µmol/kg],Relative activity [6] [%],Relative activity [7] [%],further results
C#CCN(C)CCC(=O)O.O=C(O)C(=O)O,Not Active,Not Active,,,,,,
C#CCN(C)C(C)CC (centres undefined),,,4.2,69.7,31,,,
C#CCN(C)CCCCC.O=C(O)C(=O)O,370 nM,120000 nM,6.8,> 218,,72,97,
C#CCN(C)C(CC)CC,180 nM,2400 nM,2.7,52.9,,,,
C#CCN(C)C(C)CCC(=O)OCC.Cl (centres undefined),Not Active,Not Active,,,,,,
C#CCN(C)C(C)CCC.Cl.O=C(O)C(=O)O (centres undefined),180 nM,12000 nM,1.7,114,5.2,31,89,Relative activity [8]: 91%; Relative activity [9]: 102%; Relative activity [10]: 49%; IC50 [11]: 5600 nM; Relative activity [12]: 40%; Relative activity [13]: 18%; Relative activity [14]: 94%; Relative activity [15]: 31%; Relative activity [16]: 19%; Relative activity [17]: 35%; Relative activity [18]: 89%
C#CCN(C)C(C)CCCCCCCCCC.Cl (centres undefined),39 nM,1900 nM,15.5,223,,64,107,IC50 [11]: 280 nM
C#CCN(C)CCCC.Cl,1400 nM,98000 nM,11.2,478,141,67,98,
C#CCN(C)CCCCCCO.Cl,120000 nM,Not Active,,,,,,
C#CCN(C)CCCCC(=O)OCC.O=C(O)C(=O)O,Not Active,Not Active,,,,,,
C#CCN(C)C(C)CCCCO.Cl (centres undefined),130000 nM,Not Active,,,,,,
C#CCN(C)C(C)C.Cl,19000 nM,Not Active,,,,,,IC50 [19]: 28000 nM
C#CCN(C)CCCCCCC.Cl,,38000 nM,75.6,> 491,,118,123,
C#CCN(C)[C@H](C)Cc1ccccc1 [SELEGILINE],,,2.3,143,26.3,,,
C#CCN(C)C(C)CCCCC.Cl (centres undefined),210 nM,19000 nM,2.6,127,,39,99,IC50 [11]: 320 nM
C#CCN(C)C(C)CCCCCCCC.Cl (centres undefined),180 nM,3900 nM,15,144,171,104,97,Relative activity [9]: 85%; IC50 [11]: 210 nM; Relative activity [14]: 94%; Relative activity [17]: 70%; Relative activity [18]: 79%
C#CCNC.Cl,Not Active,Not Active,,,,,,
C#CCN(C)C(C)CCCC.Cl (centres undefined),82 nM,90000 nM,1.2,262,5.1,,,Relative activity [20]: 41%; Relative activity [21]: 35%; Relative activity [22]: 103%; Relative activity [23]: 36%; Relative activity [24]: 95%; Relative activity [25]: 76%; Relative activity [26]: 81%; Relative activity [27]: 55%; Relative activity [28]: 103%; Relative activity [29]: 104%; Relative activity [30]: 27%; Relative activity [31]: 37%
